Among the data in patent publication US9988420B2, “Cytotoxic peptides and conjugates thereof” (priority 2013, dated 2018) are IC50 values, retold here.

Read-outs that look alike come from different tables or passages of the source. Starred links: 1 amine or outer side, 2 acyl side, 3 side chain; linkers in the order of their positions; H or OH if unused. Non-standard residues stand in square brackets, D forms with d. Residues, ends and D or L forms follow the SMILES beside them. *: point of attachment. Dolaproine = CO[C@@H]([C@@H]1CCCN1)[C@@H](C)C(=O)O; X1 = O=C([C@@H]1[C@H]2CC[C@H](C2)N1[*:1])[*:2]; X3 = NC(=O)CN1[C@@H]2CC[C@@H](C2)[C@H]1C(=O)*; Dil = CC[C@H](C)[C@H](NC)[C@@H](CC(=O)O)OC; X4 = N#CCN1[C@@H]2CC[C@@H](C2)[C@H]1C(=O)*; X2 = CN1[C@@H]2CC[C@@H](C2)[C@H]1C(=O)*; Phe(ol) = N[C@H](CO)Cc1ccccc1

Assay in all cases: In vitro cell killing assay of payloads (cell proliferation, Cell-Titer-Glo)
What all share (assay type): cell-based

One test has as its system HCC1954 cells. The following applies: Homo sapiens, read-out: In vitro cell killing (IC50 (nM)) HCC1954.
Another test relates to JimT1 cells. The following applies: Homo sapiens, JIMT-1, 120 h, read-out: In vitro cell killing (IC50 (nM)) JimT1.
Another test deals with A375 cells. Conditions: Homo sapiens, A-375, 120 h, Cell-Titer-Glo after five days. Here is the method:
(§1) For evaluation of the cell killing potency of the cytotoxic peptides of Formula (I) in vitro, cell proliferation assays were performed in parallel with 8 cell lines: MDA-MB231 clone 16, clone 40, JimT1, HCC1954, H526, KU812, CMK11-5 cells and Jurkat cells. In addition, in vitro, cell proliferation assays were performed using 3 other cell lines: A375, SKBR3 and NCI-N87. All the cell lines are described in more detail in Example 106 and were also used to assess the in vitro potency of immunoconjugates of the invention. The cell proliferation assays were conducted with Cell-Titer-Glo™ (Promega) five days after cells were incubated with various concentrations of ADCs (Riss et al., (2004) Assay Drug Dev Technol. 2:51-62).

In another test the test system is SKBR3 cells. The following applies: Homo sapiens, SK-BR-3, 120 h, Cell-Titer-Glo after five days. Here is the method:
as §1

Another test has as its system H526 cells. The following applies: Homo sapiens, read-out: In vitro cell killing (IC50 (nM)) NCI-H526.
The subject of the next test is NCI-N87 cells. Conditions: Homo sapiens, 120 h, Cell-Titer-Glo after five days. Here is the method:
as §1

The mark [1] stands for this setting: 120 h, HCC1954 cells, Cell-Titer-Glo after five days, Table 2b.
Where [2] appears, read: JimT1 cells, Cell-Titer-Glo after five days, Table 2b.
Where [3] appears, read: 120 h, NCI-H526 cells, Cell-Titer-Glo after five days, Table 2b.

Regarding `CC[C@H](C)[C@@H]([C@@H](CC(=O)N1CCC[C@H]1[C@H](OC)[C@@H](C)C(=O)N[C@@H](Cc1ccccc1)C(=O)OC)OC)N(C)C(=O)[C@@H](NC(=O)[C@@H]1[C@H]2CC[C@H](C2)N1C)C(C)C` [Compound 53, (S)-Methyl 2-((2R,3R)-3-((S)-1-((3R,4S,5S)-4-((S)-N,3-dimethyl-2-((1R,3S,4S)-2-methyl-2-azabicyclo[2.2.1]heptane-3-carboxamido)butanamido)-3-methoxy-5-methylheptanoyl)pyrrolidin-2-yl)-3-methoxy-2-methylpropanamido)-3-phenylpropanoate] (X2-V[Dil][Dolaproine]F-OMe), the IC50 with HCC1954 cells (setting [1]) was determined as 0.009 nM; in the test on JimT1 cells (setting [2]), 0.011 nM; in the test with A375 cells, 0.0121 nM; in the test with SKBR3 cells it was 0.008 nM; in the test with H526 cells (setting [3]) it was 0.121 nM.
Turning to `CC[C@H](C)[C@@H]([C@@H](CC(=O)N1CCC[C@H]1[C@H](OC)[C@@H](C)C(=O)N[C@@H](Cc1ccccc1)C(=O)O)OC)N(C)C(=O)[C@@H](NC(=O)[C@@H]1[C@H]2CC[C@H](C2)N1C)C(C)C` [Compound 54, (S)-2-((2R,3R)-3-((S)-1-((3R,4S,5S)-4-((S)-N,3-Dimethyl-2-((1R,3S,4S)-2-methyl-2-azabicyclo[2.2.1]heptane-3-carboxamido)butanamido)-3-methoxy-5-methylheptanoyl)pyrrolidin-2-yl)-3-methoxy-2-methylpropanamido)-3-phenylpropanoic acid] (X2-V[Dil][Dolaproine]F-OH), the IC50 in the test with HCC1954 cells (setting [1]) turned out to be 7.18 nM; in the test with JimT1 cells (setting [2]), 17.1 nM; in the test on A375 cells it was 27.4 nM; in the test on NCI-N87 cells it was 7.59 nM; with H526 cells (setting [3]), 54.8 nM.
As for `CC[C@H](C)[C@@H]([C@@H](CC(=O)N1CCC[C@H]1[C@H](OC)[C@@H](C)C(=O)N[C@H](CO)Cc1ccccc1)OC)N(C)C(=O)[C@@H](NC(=O)[C@@H]1[C@H]2CC[C@H](C2)N1CC#N)C(C)C` [Compound 63, (1R,3S,4S)-2-(Cyanomethyl)-N-((S)-1-(((3R,4S,5S)-1-((S)-2-((1R,2R)-3-(((S)-1-hydroxy-3-phenylpropan-2-yl)amino)-1-methoxy-2-methyl-3-oxopropyl)pyrrolidin-1-yl)-3-methoxy-5-methyl-1-oxoheptan-4-yl)(methyl)amino)-3-methyl-1-oxobutan-2-yl)-2-azabicyclo[2.2.1]heptane-3-carboxamide] (X4-V[Dil][Dolaproine][Phe(ol)]), the half-inhibitory concentration (IC50) with HCC1954 cells (setting [1]) was 1.64 nM; in the test with JimT1 cells (setting [2]), 5.08 nM; with A375 cells, 14.3 nM; in the test with NCI-N87 cells it was 2.09 nM; with H526 cells (setting [3]), 6.49 nM.
Take `CC[C@H](C)[C@@H]([C@@H](CC(=O)N1CCC[C@H]1[C@H](OC)[C@@H](C)C(=O)N[C@H](CO)Cc1ccccc1)OC)N(C)C(=O)[C@@H](NC(=O)[C@@H]1[C@H]2CC[C@H](C2)N1CC(N)=O)C(C)C` [Compound 64, (1R,3S,4S)-2-(2-Amino-2-oxoethyl)-N-((S)-1-(((3R,4S,5S)-1-((S)-2-((1R,2R)-3-(((S)-1-hydroxy-3-phenylpropan-2-yl)amino)-1-methoxy-2-methyl-3-oxopropyl)pyrrolidin-1-yl)-3-methoxy-5-methyl-1-oxoheptan-4-yl)(methyl)amino)-3-methyl-1-oxobutan-2-yl)-2-azabicyclo[2.2.1]heptane-3-carboxamide] (X3-V[Dil][Dolaproine][Phe(ol)]): the IC50 with HCC1954 cells (setting [1]) came to 1.09 nM; with JimT1 cells (setting [2]) it was 4.15 nM; in the test on A375 cells it was 25.6 nM; in the test with NCI-N87 cells, 1.21 nM; in the test with H526 cells (setting [3]) it was 5.74 nM.
In the case of `CC[C@H](C)[C@@H]([C@@H](CC(=O)N1CCC[C@H]1[C@H](OC)[C@@H](C)C(=O)N[C@H](CO)Cc1ccccc1)OC)N(C)C(=O)[C@@H](NC(=O)[C@@H]1[C@H]2CC[C@H](C2)N1C(C)=O)C(C)C` [Compound 65, (1R,3S,4S)-2-Acetyl-N-((S)-1-(((3R,4S,5S)-1-((S)-2-((1R,2R)-3-(((S)-1-hydroxy-3-phenylpropan-2-yl)amino)-1-methoxy-2-methyl-3-oxopropyl)pyrrolidin-1-yl)-3-methoxy-5-methyl-1-oxoheptan-4-yl)(methyl)amino)-3-methyl-1-oxobutan-2-yl)-2-azabicyclo[2.2.1]heptane-3-carboxamide] (Ac-[X1]V[Dil][Dolaproine][Phe(ol)]), the IC50 worked out at 0.93 nM in the test with HCC1954 cells (setting [1]); 6.88 nM in the test on JimT1 cells (setting [2]); 31.3 nM in the test with A375 cells; 3.67 nM with NCI-N87 cells; 3.82 nM in the test with H526 cells (setting [3]).
For the compound `CC[C@H](C)[C@@H]([C@@H](CC(=O)N1CCC[C@H]1[C@H](OC)[C@@H](C)C(=O)N[C@H](COC)Cc1ccccc1)OC)N(C)C(=O)[C@@H](NC(=O)[C@@H]1[C@H]2CC[C@H](C2)N1C)C(C)C` [Compound 67, (1R,3S,4S)-N-((S)-1-(((3R,4S,5S)-3-Methoxy-1-((S)-2-((1R,2R)-1-methoxy-3-(((S)-1-methoxy-3-phenylpropan-2-yl)amino)-2-methyl-3-oxopropyl)pyrrolidin-1-yl)-5-methyl-1-oxoheptan-4-yl)(methyl)amino)-3-methyl-1-oxobutan-2-yl)-2-methyl-2-azabicyclo[2.2.1]heptane-3-carboxamide], the IC50 turned out to be 0.239 nM in the test on HCC1954 cells (HCC1954, 120 h); 0.369 nM with JimT1 cells; 0.244 nM in the test with A375 cells; 0.614 nM in the test with H526 cells (NCI-H526, 120 h).
Take `CC[C@H](C)[C@@H]([C@@H](CC(=O)N1CCC[C@H]1[C@H](OC)[C@@H](C)C(=O)N[C@@H](Cc1ccccc1)c1cc[nH]n1)OC)N(C)C(=O)[C@@H](NC(=O)[C@@H]1[C@H]2CC[C@H](C2)N1C)C(C)C` [Compound 68, (1R,3S,4S)-N-((S)-1-(((3R,4S,5S)-3-Methoxy-1-((S)-2-((1R,2R)-1-methoxy-2-methyl-3-oxo-3-(((S)-2-phenyl-1-(1H-pyrazol-3-yl)ethyl)amino)propyl)pyrrolidin-1-yl)-5-methyl-1-oxoheptan-4-yl)(methyl)amino)-3-methyl-1-oxobutan-2-yl)-2-methyl-2-azabicyclo[2.2.1]heptane-3-carboxamide]: the half-inhibitory concentration (IC50) was determined as 0.127 nM in the test with HCC1954 cells (setting [1]); 0.251 nM with JimT1 cells (setting [2]); 0.596 nM with A375 cells; 0.2 nM in the test on NCI-N87 cells; 0.428 nM with H526 cells (setting [3]).
Turning to `CC[C@H](C)[C@@H]([C@@H](CC(=O)N1CCC[C@H]1[C@H](OC)[C@@H](C)C(=O)N[C@@H](Cc1ccccc1)c1ncccn1)OC)N(C)C(=O)[C@@H](NC(=O)[C@@H]1[C@H]2CC[C@H](C2)N1C)C(C)C` [Compound 69, (1R,3S,4S)-N-((S)-1-(((3R,4S,5S)-3-Methoxy-1-((S)-2-((1R,2R)-1-methoxy-2-methyl-3-oxo-3-(((S)-2-phenyl-1-(pyrimidin-2-yl)ethyl)amino)propyl)pyrrolidin-1-yl)-5-methyl-1-oxoheptan-4-yl)(methyl)amino)-3-methyl-1-oxobutan-2-yl)-2-methyl-2-azabicyclo[2.2.1]heptane-3-carboxamide], the IC50 in the test on HCC1954 cells (setting [1]) stood at 0.065 nM; in the test on JimT1 cells (setting [2]), 0.091 nM; in the test on A375 cells, 0.092 nM; with NCI-N87 cells it was 0.142 nM; in the test with H526 cells (setting [3]), 0.189 nM.
The matching figures for `CC[C@H](C)[C@@H]([C@@H](CC(=O)N1CCC[C@H]1[C@H](OC)[C@@H](C)C(=O)N[C@H](Cc1ccccc1)c1ncccn1)OC)N(C)C(=O)[C@@H](NC(=O)[C@@H]1[C@H]2CC[C@H](C2)N1C)C(C)C` [Compound 70, (1R,3S,4S)-N-((S)-1-(((3R,4S,5S)-3-methoxy-1-((S)-2-((1R,2R)-1-methoxy-2-methyl-3-oxo-3-(((R)-2-phenyl-1-(pyrimidin-2-yl)ethyl)amino)propyl)pyrrolidin-1-yl)-5-methyl-1-oxoheptan-4-yl)(methyl)amino)-3-methyl-1-oxobutan-2-yl)-2-methyl-2-azabicyclo[2.2.1]heptane-3-carboxamide]: 1.38 nM, 2.36 nM, 2.16 nM, 3.81 nM and 4.73 nM.
The like results for `CC[C@H](C)[C@@H]([C@@H](CC(=O)N1CCC[C@H]1[C@H](OC)[C@@H](C)C(=O)N[C@@H](Cc1ccccc1)c1nnc(-c2ccccc2)o1)OC)N(C)C(=O)[C@@H](NC(=O)[C@@H]1[C@H]2CC[C@H](C2)N1C)C(C)C` [Compound 71, (1R,3S,4S)-N-((S)-1-(((3R,4S,5S)-3-methoxy-1-((S)-2-((1R,2R)-1-Methoxy-2-methyl-3-oxo-3-(((S)-2-phenyl-1-(5-phenyl-1,3,4-oxadiazol-2-yl)ethyl)amino)propyl)pyrrolidin-1-yl)-5-methyl-1-oxoheptan-4-yl)(methyl)amino)-3-methyl-1-oxobutan-2-yl)-2-methyl-2-azabicyclo[2.2.1]heptane-3-carboxamide] were, in that order, 0.075 nM, 0.124 nM, 0.119 nM, 0.091 nM and 0.352 nM.

The term IC50 denotes the concentration at which inhibition is half-maximal.
